# Results from patent US10357487B2, “Combinations of acetylcholinesterase inhibitors and muscarinic agonists and methods of use thereof” (priority 2015, dated 2019).
# Key:
# [1] = system: patients with history of PVR; assay: Voiding trial / ability to void under stepwise drug regimens; assay type: in vivo, human
# Experimental: In an exemplary embodiment, patients with history of PVR of 100 ml to 2500 ml failed bother standard drug treatment and the Trans Urethral Resection of the Prostate (TURP) procedure or combinations of both treatment options.
# (§1) The patients opted for immediate TURP and pharmacological therapy with alpha blocker, bethanechol, and donepezil if needed.
# (§2) Bethanechol was then added to maximal recommended doses, according to package insert or Physician Desk Reference (PDR), which was 200 mg per day in divided doses. […] Bethanocol was either added at 75 mg five times per day to their existing regimen or patients were switched to betahnocol alone at 75 mg five time per day.
# (§3) Subsequently donepezil was added in amounts ranging from 5 or 10 to their respective regimens.
# While all patients in this series were males, females can also benefit from the present combination, particularly if no obstruction exists in their urinary tract.
# [2] = system: patients with history of PVR; assay: Post void residual (PVR) before and after combination regimen in patients with urinary retention; assay type: in vivo, human; conditions: donepezil 5 or 10 added to respective regimens (alpha blocker, bethanechol); all patients
# Experimental: as §1, §2, §3
# [3] = system: patients with history of PVR; assay: Side effects observed in the patients
# [4] = silodosin 8 mg added to tamsulosin
smiles,measurement,setting,value
CCOc1ccccc1OCCN[C@H](C)Cc1ccc(OC)c(S(N)(=O)=O)c1 [tamsulosin],voiding trial,[1]; tamsulosin 0.4 mg or 0.8 mg per day,failed a voiding trial
COc1cc2c(cc1OC)C(=O)C(CC1CCN(Cc3ccccc3)CC1)C2 (centres unmarked) [donepezil],reduction in PVR upon completion of the trial,[2],more than 75%
same,ability to void,"[1]; donepezil 5 or 10 added to respective regimens, each patient",able to void
same,bladder emptying,"[1]; eight sequentially seen patients, donepezil with bethanechol",potentiated bethanechol to facilitate bladder emptying
same,frequency of voiding,"[1]; upon continuation of the regimen with donepezil, all patients",increasing frequency of voiding
"CC(C[N+](C)(C)C)OC(N)=O (centres unmarked) [bethanechol, carbamyl-methylcholine chloride]",side effects,"[3]; bethanechol at 200 mg per day or 375 mg per day, eight patients",no side effects
C[C@H](Cc1cc2c(c(C(N)=O)c1)N(CCCO)CC2)NCCOc1ccccc1OCC(F)(F)F [silodosin],side effects,[3]; [4],no extra side effects
same,voiding trial,[1]; [4],failed to the voiding trial
